From the supplement of paper PMC10307832

How the values were obtained:
Experiment in all cases: relative viability (nuclei count vs DMSO), 5 days (fraction); higher = more cells survive
[1] = compound: CN(C)CC1=CC(=CC=C1)N=C(C2=CC=CC=C2)C3=C(NC4=C3C=CC(=C4)C(=O)N(C)C)O + CC(=O)Nc1cccc(-n2c(=O)n(C3CC3)c(=O)c3c(Nc4ccc(I)cc4F)n(C)c(=O)c(C)c32)c1 [Trametinib] (partner 0.02 µM)
Procedure, shortened: (§1)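 Lung cancer cell lines in 1536-well plates got either a single drug or a fixed anchor-drug dose together with five library-drug doses (not always all listed) in √10 steps, by pin tool, on the day after seeding. Nuclei were counted after 5 days, and relative viability is the treated-to-vehicle ratio of nuclei counts. Values are medians of duplicate plates.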

[2] = compound: CN(C)CC1=CC(=CC=C1)N=C(C2=CC=CC=C2)C3=C(NC4=C3C=CC(=C4)C(=O)N(C)C)O + N=C(N)NC(=N)NCCc1ccccc1 [Phenformin] (partner 250 µM)
Procedure, shortened: as §1

[3] = compound: CN(C)CC1=CC(=CC=C1)N=C(C2=CC=CC=C2)C3=C(NC4=C3C=CC(=C4)C(=O)N(C)C)O + Nc1nc2[nH]cc(CCc3ccc(C(=O)N[C@@H](CCC(=O)O)C(=O)O)cc3)c2c(=O)[nH]1 [Pemetrexed] (partner 0.2 µM)
Procedure, shortened: as §1

[4] = compound: CN(C)CC1=CC(=CC=C1)N=C(C2=CC=CC=C2)C3=C(NC4=C3C=CC(=C4)C(=O)N(C)C)O + CC1(C)CCC(c2ccc(Cl)cc2)=C(CN2CCN(c3ccc(C(=O)NS(=O)(=O)c4ccc(N[C@H](CCN5CCOCC5)CSc5ccccc5)c(S(=O)(=O)C(F)(F)F)c4)cc3)CC2)C1 [Navitoclax] (partner 0.5 µM)
Procedure, shortened: as §1

Row | Cell Line | relative viability ([1]; first compound 0.08 µM) | relative viability ([1]; first compound 0.253 µM) | relative viability ([1]; first compound 0.8 µM) | relative viability ([1]; first compound 2.53 µM) | relative viability ([1]; first compound 8 µM) | relative viability ([2]; first compound 0.08 µM) | relative viability ([2]; first compound 0.253 µM) | relative viability ([2]; first compound 0.8 µM) | relative viability ([2]; first compound 2.53 µM) | relative viability ([2]; first compound 8 µM) | relative viability ([3]; first compound 0.08 µM) | relative viability ([3]; first compound 0.253 µM) | relative viability ([3]; first compound 0.8 µM) | relative viability ([3]; first compound 2.53 µM) | relative viability ([3]; first compound 8 µM) | relative viability ([4]; first compound 0.08 µM) | relative viability ([4]; first compound 0.253 µM) | relative viability ([4]; first compound 0.8 µM) | relative viability ([4]; first compound 2.53 µM) | relative viability ([4]; first compound 8 µM)
1 | NCI-H520 | 0.493 | 0.703 | 0.664 | 0.594 | 0.497 | 0.477 | 0.564 | 0.508 | 0.429 | 0.347 | 0.688 | 0.654 | 0.737 | 0.563 | 0.435 | 1.04 | 1.23 | 1.07 | 1.05 | 0.953
2 | NCI-H1793 | 0.426 | 0.418 | 0.433 | 0.381 | 0.445 | 0.405 | 0.394 | – | 0.324 | 0.284 | 0.901 | 0.872 | 0.553 | 0.791 | 0.823 | 0.387 | 0.439 | 0.269 | 0.492 | 0.406
3 | NCI-H2405 | 0.642 | 0.634 | 0.593 | 0.605 | 0.535 | 0.358 | 0.387 | 0.378 | 0.347 | 0.249 | 1.2 | 1.07 | 0.936 | 1.08 | 0.828 | 1.17 | 0.759 | 1.1 | 0.786 | 0.742
4 | HCC-15 | 0.362 | 0.392 | 0.356 | 0.389 | 0.434 | 0.48 | 0.462 | 0.503 | 0.419 | 0.431 | 0.232 | 0.22 | 0.208 | 0.235 | 0.226 | 0.708 | 0.705 | 0.726 | 0.731 | 0.667
5 | NCI-H1975 | 0.368 | 0.323 | 0.304 | 0.298 | 0.238 | 0.378 | 0.407 | 0.357 | 0.393 | 0.36 | 0.292 | 0.327 | 0.287 | 0.301 | 0.31 | 1.07 | 1.06 | 0.989 | 1.08 | 1.06
6 | NCI-H1755 | 0.844 | 0.709 | 0.708 | 0.779 | 0.736 | 0.577 | 0.58 | 0.601 | 0.549 | 0.566 | 0.351 | 0.404 | 0.371 | 0.364 | 0.423 | 1.02 | 1.01 | 0.998 | 0.972 | 0.961
7 | NCI-H2342 | 0.894 | 0.751 | 0.727 | 0.906 | 1.23 | 0.572 | 0.685 | 0.574 | 0.647 | 0.668 | 0.763 | 0.762 | 0.829 | 0.836 | 0.778 | – | – | – | – | –
8 | COR-L 105 | 0.508 | 0.447 | 0.381 | 0.492 | 0.398 | 0.464 | 0.546 | 0.427 | 0.455 | 0.478 | 1.21 | 1.01 | 0.895 | 0.892 | 0.939 | 0.664 | 0.795 | 0.762 | 0.733 | 0.562
